Measured values as given in patent publication EP3466279B1, “PRODUCTION METHOD OF COMPOSITION USING INSECT AS A RAW MATERIAL” (National University Corporation Ehime University, priority 2016, dated 2017).

Experiments:
[1] = test system: mouse macrophage cell line (RAW264 cells); format: cell-based
[2] = test system: mouse macrophage cell line (RAW264 cells); assay: Immunosuppressive action: inhibition of LPS-induced nitrogen monoxide production; format: cell-based; settings: LPS 100 ng/mL; 1,2-benzenediol 0 µg/mL to 10 µg/mL; FIG. 4
Description: A substance contained in Antheraea yamamai pupae and Bombyx mori pupae and having an immunosuppressive action on humans or animals having ate the insects was identified. Distilled water was added to a dry powder of Antheraea yamamai pupae and a dried powder of Bombyx mori pupae and the mixture was stirred and centrifugally separated to obtain the supernatant. Ethyl acetate was added to the resultant supernatant to cause liquid-liquid partition, and the resultant ethyl acetate layer was evaporated to dryness by distilling off the solvent with a rotary evaporator. Distilled water was added to the residue, which was added to a C18 solid phase column, and the flow-through fraction was recovered. The resultant flow-through fraction was eluted with high performance liquid chromatography (Develosil C30 column), and the immunosuppressive action of each eluted fraction obtained was measured. […]
Whether 1,2-benzenediol identified from Antheraea yamamai pupae and Bombyx mori pupae has an immunosuppressive action or not was evaluated by the production of nitrogen monoxide from a mouse macrophage cell line (RAW264 cells) as an indicator.

In the case of `Oc1ccccc1O` [1,2-benzenediol], the “growth inhibition of a mouse macrophage cell line (concentration at which confirmed)” value [1] is reported as ≥ 1 µg/mL and the “inhibition of nitrogen monoxide production” value [2] is reported as “inhibition of nitrogen monoxide production was observed depending on the concentration”.
